We go through 8 molecules from patent publication US8729113B2 (Hoffmann-La Roche Inc., priority 2008, dated 2014).

T1 sequence (Q923Y8 whole entry): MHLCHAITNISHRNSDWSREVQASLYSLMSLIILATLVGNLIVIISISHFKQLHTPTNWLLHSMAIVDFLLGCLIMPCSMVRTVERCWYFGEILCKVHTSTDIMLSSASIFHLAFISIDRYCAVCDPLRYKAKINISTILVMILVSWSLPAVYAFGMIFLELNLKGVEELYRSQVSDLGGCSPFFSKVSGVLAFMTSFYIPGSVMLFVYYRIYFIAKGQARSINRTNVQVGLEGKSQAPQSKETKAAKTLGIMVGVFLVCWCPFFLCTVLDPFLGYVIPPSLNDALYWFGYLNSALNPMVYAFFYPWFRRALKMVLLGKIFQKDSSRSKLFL

The first assay concerns the target T1, TAAR1 (Mus musculus (Mouse), UniProt Q923Y8). In words: Radioligand binding assay on TAAR1: Kd of the radioligand. The note with it: binding assay at 4° C.; species of TAAR1 not stated; read-out: calculated Kd value of the radioligand. On the procedure: Cells at confluence were rinsed with ice-cold phosphate buffered saline without Ca^2+ and Mg^2+ containing 10 mM EDTA and pelleted by centrifugation at 1000 rpm for 5 min at 4° C. The pellet was then washed twice with ice-cold phosphate buffered saline and cell pellet was frozen immediately by immersion in liquid nitrogen and stored until use at −80° C. Cell pellet was then suspended in 20 ml HEPES-NaOH (20 mM), pH 7.4 containing 10 mM EDTA, and homogenized with a Polytron (PT 3000, Kinematica) at 10,000 rpm for 10 s. The homogenate was centrifuged at 48,000×g for 30 min at 4° C. and the pellet resuspended in 20 ml HEPES-NaOH (20 mM), pH 7.4 containing 0.1 mM EDTA (buffer A), and homogenized with a Polytron at 10,000 rpm for 10 s. The homogenate was then centrifuged at 48,000×g for 30 min at 4° C. and the pellet resuspended in 20 ml buffer A, and homogenized with a Polytron at 10,000 rpm for 10 s. Protein concentration was determined by the method of Pierce (Rockford, Ill.). […]
Binding assay was performed at 4° C. in a final volume of 1 ml, and with an incubation time of 30 min. […] The tubes and filters were then washed 3 times with 1 ml aliquots of cold buffer B. Filters were not dried and soaked in Ultima gold (45 μl/well, Packard Instrument Company) and bound radioactivity was counted by a TopCount Microplate Scintillation Counter (Packard Instrument Company).
Consider `c1ccc2c(c1)CCCC2C1=NCCN1` (racemic) [[^3H]-rac-2-(1,2,3,4-tetrahydro-1-naphthyl)-2-imidazoline], for which the Kd was 60 nM.

In the next assay the target is T1, TAAR1. Briefly: Radioligand binding assay on TAAR1 (membranes of stably transfected HEK293 cells). The conditions noted are these: competition with [3H]-rac-2-(1,2,3,4-tetrahydro-1-naphthyl)-2-imidazoline, 4° C., 30 min.
Molecule `C[C@@H](C[C@H]1COC(N)=N1)Oc1ccc(Cl)cc1` [Example 45, (S)-4-[(S)-2-(4-Chloro-phenoxy)-propyl]-4,5-dihydro-oxazol-2-ylamine] gave a Ki of 0.0028 µM.
The same measure, in the same setting: as for `NC1=N[C@@H](CCOc2cccc(-c3ccccc3)c2)CO1` [Example 33, (S)-4-[2-(Biphenyl-3-yloxy)-ethyl]-4,5-dihydro-oxazol-2-ylamine], the figure is 0.0018 µM; as for `Cc1cccc(OCC[C@H]2COC(N)=N2)c1` [Example 32, (S)-4-(2-m-Tolyloxy-ethyl)-4,5-dihydro-oxazol-2-ylamine], 0.0007 µM.
Same read-out and setting: the figure for `CCC(CC[C@H]1COC(N)=N1)c1ccc(F)cc1` (stereo partly drawn) [Example 18, (4S)-4-[3-(4-Fluoro-phenyl)-pentyl]-4,5-dihydro-oxazol-2-ylamine] is 0.0026 µM; for `C[C@@H](C[C@H]1COC(N)=N1)Oc1ccc(F)cc1` [Example 64] it is 0.0076 µM.
In turn, `C[C@@H](C[C@H]1COC(N)=N1)Oc1ccc(Cl)c(Cl)c1` [Example 75, (S)-4-[(S)-2-(3,4-Dichloro-phenoxy)-propyl]-4,5-dihydro-oxazol-2-ylamine] had a Ki of 0.001 µM.
Take `CC[C@@H](C[C@H]1COC(N)=N1)Oc1cccc(OCc2ccccc2)c1` [Example 140, (S)-4-[(S)-2-(3-Benzyloxy-phenoxy)-butyl]-4,5-dihydro-oxazol-2-ylamine]: affinity was put at a Ki of 0.0009 µM.
